Measured values taken from US20060154871A1, “Peptides” (ReGen Therapeutics PIc, priority 1999, published 2006).

Test system: rabbits
Assay: Serum antibody titre by ELISA against the corresponding synthetic peptide antigen, before and after the 10 week immunisation of rabbits
Assay type: in vivo, rabbit
Conditions: for Titre: (Serum Dilution) Post Immunization R1: rabbit R1, after 10 week immunisation protocol, 200 μg peptide conjugate per inoculation; for Titre: (Serum Dilution) Pre Immunization R1: rabbit R1, pre immunization serum, ELISA with synthetic peptide antigen; for antigenic response: rabbits R1 and R2, summary of Table 6
Text: To each N-terminal end of the synthetic peptides, L-cysteine was attached, and the peptide was formed into a ring so that the cysteine group lay between the N-terminal and the C-terminal ends of the synthetic peptide. This facilitated peptide conjugation with Keyhole Hemolymph (KHL). The shorter peptides (i.e. those containing 9 or fewer amino acids) were artificially elongated with biologically inert amino acids prior to attaching the L-cysteine. This was done in order to facilitate annealing and increase the antigenicity of the shorter peptides.
For immunisation, two young adult rabbits (5-6 months old, weighing 5-6 lbs [2.3-2.7 kg]) were used. Each antigen (i.e., each synthetic peptide) was given subcutaneously and intramuscularly in 0.1 ml injections at ten different sites. The protocol used followed the following sequence:
The level of antibodies in the serum was established by ELISA (enzyme-linked immunosorbent assay) with the corresponding synthetic peptide antigen. This technique involved the following steps: • 1. The antigen was diluted with a 0.1 M bicarbonate buffer (pH 9.0) to yield a 10 μg of antigen/ml solution. A volume of 50 μl of this solution was placed into each microwell of a 96 well plate. • 2. The plates were covered and incubated at 37° C. for 3 hours. • 3. The wells were washed with a coupling buffer and blocked using 200 μl of Pierce standard solution of BSA (bovine serum albumin). • 4. 50 μl of dilutent BSA (0.75% soln.) was pipetted into each well. 50 μl of antibody serum sample diluted 1:100 in dilutent BSA were placed in lane A of each row. • 5. 1:2 serial dilutions were performed moving down the plate. • 6. The plates were covered and incubated at room temperature for 60 minutes. • 7. The plates were washed four times with PBS wash solution. • 8. A volume of 50 μl of goat anti-rabbit IgG (H&L) HRP conjugate at 1:1000 dilution in BSA was pipetted into each well and incubated at room temperature for 60 minutes (H&L=heavy and light chain; HRP=horseradish peroxidase). • 9. The plates were washed four times with PBS wash solution. • 10. A volume of 50 μl of substrate solution 2,2′-azino-bis(3-ethylbenzothiazoline-6-sulfonic acid)-diammonium salt (ABTS available from Pierce, which is used to help visualise the extent of the antibody/antigen reaction) was pipetted into each well and incubated at room temperature for about 2 minutes. • 11. The reaction was stopped by adding 50 μl of 1% SDS (sodium dodecyl sulfate) into each well. • 12. The wells were then read on a dynoplate reader at 405.
The data presented in Table 6 show the serum antibody titers against specific antibodies after the 10 week immunisation protocol.

Row | Substance | Titre: (Serum Dilution) Post Immunization R1 | Titre: (Serum Dilution) Pre Immunization R1 | antigenic response
1 | AFLLYQE [Peptide C-12, β-casein precursor peptide, Casein Position 202-208] | 12800 |  | 
2 | ATFNRYQDDHGEEILKSL [Peptide D-1, annexin precursor peptide, Annexin Position 203-220] | 12800 | 0 | 
3 | DLEMPVLPVEPFPFV [Peptide B-7, Colostrinin peptide (possibly) having β-casein homologue precursor] | 25600 | 0 | 
4 | DPPPPQS [Peptide A-7, Colostrinin peptide of unknown precursor] | 3400 | 0 | significantly lower than expected
5 | DQPPDVEKPDLQPFQVQS [Peptide B-10, Colostrinin peptide (possibly) having β-casein homologue precursor] | 12800 | 0 | 
6 | DSQPPV [Peptide B-4] | 25600 | 0 | 
7 | FPPPK [Peptide B-5] | 12800 | 0 | 
8 | KYKLQPE [Peptide B-2, Colostrinin peptide (possibly) having β-casein homologue precursor] | 25600 | 0 | 
9 | LFFFLPVVNVLP [Peptide B-8, Colostrinin peptide (possibly) having β-casein homologue precursor] | 200 | 0 | significantly lower than expected
10 | LKPFPKLKVEVFPFP [Peptide A-4, Colostrinin peptide of unknown precursor] | 6400 | 0 | 
11 | LQTPQPLLQVMMEPQGD [Peptide A-1, Colostrinin peptide of unknown precursor] | 6400 | 0 | significantly lower than expected
12 | MPQNFYKLPQM [Peptide A-2, Colostrinin peptide of unknown precursor] | 6400 | 0 | 
13 | MQPPPLP [Peptide B-9, Colostrinin peptide (possibly) having β-casein homologue precursor] | 3200 | 0 | 
14 | SEEMP [Peptide B-3] | 25600 | 0 | 
15 | SEQP [Peptide A-5] | 3200 | 0 | 
16 | VLEMKFPPPPQETVT [Peptide A-3, Colostrinin peptide of unknown precursor] | 6400 | 0 | 
17 | VLPPNVG [Peptide B-1, Colostrinin peptide (possibly) having β-casein homologue precursor] | 26500 | 0 | 
18 | VVMEV [Peptide B-6] | 25600 | 0 | 
